From patent US10590422B2, “Anticancer therapeutic intervention” (PHYZAT BIOPHARMACEUTICALS, LDA., priority 2017, dated 2020)

How the values were obtained:
[1] = tested on: human colon cancer HTC-116 cells; assay: Cell proliferation assay (calcein-AM) in human colon cancer HTC-116 cells; type: cell-based; details: for Decrease in cell proliferation greater the higher the concentration of Injectin in the siRNA:Injectin complexes: Injectin 0.037% to 0.15%; for cell proliferation / proliferation: treatment 6 h; for proliferation: at 72 h, 0.17% Lipofectamine 2000 or 0.1% Injectin, FIGS. 19B and 20B
Experimental: SK-HEP-1, T24, HT-1080 and HCT-116 cell lines were maintained in a humidified atmosphere of 5% CO2 at 37° C. SK-HEP-1 cells were grown in RPMI-1640 (Sigma, St. Louis, Mo.) supplemented with 20% fetal bovine serum (FBS) (Gibco, UK), 100 U/mL penicillin G, 0.25 μg/mL amphotericin B, 100 μg/mL streptomycin (Gibco, UK), 25 mM sodium bicarbonate (Merck, Germany) and 25 mM N-2-hydroxyethylpiperazine-N′-2-ethanosulfonic acid (HEPES) (Sigma, St. Louis, Mo.). T24 and HT-1080 cells were grown, respectively, in Dulbecco's Modified Eagle's Medium (DMEM)—high glucose (Sigma, St. Louis, Mo.) and DMEM—low glucose (Sigma, St. Louis, Mo.), supplemented with 10% FBS (Gibco, UK), 100 U/mL penicillin G, 0.25 μg/mL amphotericin B, 100 μg/mL streptomycin (Gibco, UK), 25 mM sodium bicarbonate (Merck, Germany) and 25 mM HEPES (Sigma, St. Louis, Mo.). HCT-116 cells were grown in McCoy's 5A (Sigma, St. Louis, Mo.) supplemented with 10% FBS (Gibco, UK), 100 U/mL penicillin G, 0.25 μg/mL amphotericin B, 100 μg/mL streptomycin (Gibco, UK), 25 mM sodium bicarbonate (Merck, Germany) and 25 mM HEPES (Sigma, St. Louis, Mo.). For all cell lines the medium was changed every 2 days, and cells reached confluence 3-4 days after initial seeding. For subculturing, cells were dissociated with 0.25% trypsin-ethylenediaminetetraacetic acid (EDTA) (Sigma, St. Louis, Mo.), split 1:15 or 1:20 and subcultured in a 21-cm^2 growth area (Sarstedt, Germany).
Cell proliferation was measured using calcein-AM (Thermo Fisher Scientific, USA). The membrane permeant calcein-AM, a nonfluorescent dye, is taken up and converted by intracellular esterases to membrane impermeant calcein, which emits green fluorescence. Cells were plated in 96-well plates with black walls clear bottom (BD Biosciences, USA) and incubated 24 h under normal growth conditions. Cells were incubated with test items at 37° C., 5% C02. After the incubation period, serum and antibiotic was restored and cells were further incubated at normal conditions during 72 h. After treatment with test substances or vehicle, cells were washed twice with Hanks' medium and loaded with 2 μM calcein-AM in Hanks' medium, at 37° C. for 30 min. Fluorescence was measured at 485 nm excitation and 530 nm emission wavelengths in a microplate spectrofluorometer (Gemini EM, Molecular Devices). Nine consecutive fluorescence measurements are performed per well, to allow fluorescence readings in the whole area of the well, which was then considered for the calculation of mean fluorescence per well. To determine minimum staining for calcein (calceinmin), eight wells were treated with ethanol 30 min before calcein-AM addition. The percent cell number is calculated as [(calceinsample)/(calceincontrol)]×100.

[2] = tested on: human colon cancer HTC-116 cells xenograft tumour; assay: Xenograft tumour model, relative tumour volume, intratumoral injections; type: in vivo, NMRI nu/nu mice; details: immune deficient mice, subcutaneous HTC-116; 10 μg intratumoral (50 μL) every other day; versus vehicle (Injectin); FIG. 23
Experimental: Human colon cancer HTC-116 cells grown in tissue culture and 10^7 cells per mouse were injected into the hind flank of female NMRI nu/nu mice. Once tumours have developed and tumour volumes reached randomisation criteria, therapy will commence by every other day […], intra-tumoral injections. A vehicle treated group was included in the study as control. Female immunodeficient NMRI nu/nu mice from Charles River were used. The animals were delivered at the age of 4-6 weeks and are used for implantation after at least 1 week of quarantine. […] During the experiments, animals were monitored at least daily. […]
The tumour volume was determined by a two-dimensional measurement with callipers on the day of randomization (Day 0) and then twice weekly. Tumour volumes were calculated according to the following equation: Tumour Vol [mm^3]=a [mm]×b^2 [mm^2]×0.5 […]
The relative volume of an individual tumour on day X (RTVx) was calculated by dividing the absolute volume [mm^3] of the respective tumour on day X (Tx) by the absolute volume of the same tumour on the day of randomization, i. e. on day 0 (T0), multiplied by 100, as shown by the following equation: […]
Group median and range (alternatively geometric mean+/−SEM) of RTVs were calculated, considering only the tumours of animals that were alive on the day in question (for median). […]

[3] = 72 h exposure, 0.1% Injectin, FIG. 14
[4] = 72 h exposure, increasing Injectin (0.037% to 0.15%), FIG. 15

Substance | proliferation (siRNA-LAT1 alone) ([1]; 25 nM, 72 h exposure, Injectin, FIG. 18A) | Effect of 5-fluoruracil upon proliferation in combination with the siRNA ([1]; 5-FU 10 μM, siRNA 25 nM, 72 h, 0.037% Injectin, FIG. 17A) | Effect of 5-fluoruracil upon proliferation in combination with the siRNA ([1]; 5-FU 3 and 10 μM, siRNA 5 and 25 nM, concentration dependent, 72 h, 0.25% Lipofectamine 2000, FIG. 16) | Decrease in cell proliferation greater the higher the concentration of Injectin in the siRNA:Injectin complexes ([1]; 72 h, FIG. 15) | Effect of cisplatin upon proliferation in combination with the siRNA ([1]; Cisp 3 and 10 μM, siRNA 5 and 25 nM, concentration dependent, 72 h, 0.25% Lipofectamine 2000, FIG. 16) | Effect of oxaliplatin upon proliferation in combination with the siRNA ([1]; Oxa 1 and 3 μM, siRNA 5 and 25 nM, concentration dependent, 72 h, 0.25% Lipofectamine 2000, FIG. 16) | cell proliferation [1, 3] | cell proliferation [1, 4] | proliferation [1] | reduction in relative tumour volume [2] | Enhancement of effects of 5-fluoruracil compared with SEQ ID NO: 267/397/398 ([1]; 5-FU 10 μM, 72 h, FIG. 17B) | Effect of siRNA-LAT1 SEQ ID NO: 58/387/388 upon proliferation in combination with the siRNA-ASCT2 ([1]; 72 h, siRNA-ASCT2 at non-efficacious conditions (0.037% Injectin), FIG. 18)
58/387/388 (sense CUUCGCCACCUACCUGCUCAATT; antisense UUGAGCAGGUAGGUGGCGAAGTT; siRNA; sugars by position and backbone not given here; further chemistry not fully specified) | significant decrease | enhanced | significantly enhanced | particularly evident | significantly enhanced | significantly enhanced | decreased | decreased | significantly decreased | statistically significant |  | 
278/403/404 (sense UGCCACGGUCGCCUCUGAGAATT; antisense UUCUCAGAGGCGACCGUGGCATT; siRNA; sugars by position and backbone not given here; further chemistry not fully specified) |  |  |  | particularly evident |  |  | decreased | decreased | significantly decreased | statistically significant | more marked | enhanced
